Literature values as cited in patent publication US4721704A, “Potent synthetic atrial peptide analogs” (Peninsula Laboratories, Inc., priority 1986, dated 1988).
Ends that are not written are not given here.

Tests used:
[1] = Atriopeptin III and α-hANP compared with each other
[2] = system: patients; details: 400 μg bolus doses

α-human atrial natriuretic polypeptide (SLRRSSCFGGRMDRIGAQSGLGCNSFRY; ends and bridges not checked; cysteine pairing not given here; UniProt P01160 124-151, looked up) [α-hANP, peptide isolated from human atria]
hypotensive, diuretic and natriuretic activities [1]: about comparable | diuretic action [2]: acting as a diuretic | effect on blood pressure [2]: decreasing blood pressure
